Test results taken from patent publication EP0183129A1, “Quinolonecarboxylic acid derivatives” (KYORIN PHARMACEUTICAL CO., LTD., priority 1984, dated 1986).
Counter-ions that a name gives are not always drawn.

Tests used:
B. fragilis 25285 = experiment: In vitro antibacterial activity, MIC (standard strain); assay type: cell-based, Bacteroides fragilis; details: Bacteroides fragilis, 25285, B. fragilis 25285; 10^6 cells/ml; standard strain; read-out: MIC
[1] = tested on: Morganella morganii IID 602; experiment: as above; assay type: cell-based; details: IID602; Morganella morganii IID 602; 10^6 cells/ml; standard strain; read-out: MIC
S. agalactiae 4368 = experiment: In vitro antibacterial activity, MIC (clinical isolates); assay type: cell-based; details: Streptococcus agalactiae; S. agalactiae 4368; 10^6 cells/ml; clinical isolate; read-out: MIC
S. pneumoniae 2950 = experiment: as above; assay type: cell-based; details: Streptococcus pneumoniae; S. pneumoniae 2950; 10^6 cells/ml; clinical isolate; read-out: MIC
S. epidermidis IID 866 = experiment: In vitro antibacterial activity, MIC (standard strain); assay type: cell-based; details: Staphylococcus epidermidis, IID866, S. epidermidis IID 866; 10^6 cells/ml; standard strain; read-out: MIC
[2] = tested on: S. aureus IID 670 (Terajima); experiment: as above; assay type: cell-based, Staphylococcus aureus; details: Staphylococcus aureus, IID670, S. aureus IID 670 (Terajima); 10^6 cells/ml; standard strain; read-out: MIC
P. mirabilis IID 994 = experiment: as above; assay type: cell-based; details: Proteus mirabilis, IID994; P. mirabilis IID 994; 10^6 cells/ml; standard strain; read-out: MIC
[3] = tested on: Enterobacter cloacae IID 977; experiment: as above; assay type: cell-based; details: Enterobacter cloacae, IID977, Enterobacter cloacae IID 977; 10^6 cells/ml; standard strain; read-out: MIC
E. coli ATCC 10536 = experiment: as above; assay type: cell-based; details: Escherichia coli, ATCC10536; E. coli ATCC 10536; 10^6 cells/ml; standard strain; read-out: MIC
[4] = tested on: Staphylococcus aureus 209 P; experiment: as above; assay type: cell-based; details: Staphylococcus aureus 209 P; 10^6 cells/ml; standard strain; read-out: MIC
S. pyogenes 4372 = experiment: In vitro antibacterial activity, MIC (clinical isolates); assay type: cell-based; details: Streptococcus pyogenes; S. pyogenes 4372; 10^6 cells/ml; clinical isolate; read-out: MIC
S. agalactiae 4394 = experiment: as above; assay type: cell-based; details: Streptococcus agalactiae; S. agalactiae 4394; 10^6 cells/ml; clinical isolate; read-out: MIC
[5] = tested on: Acinetobacter anitratus IID 876; experiment: In vitro antibacterial activity, MIC (standard strain); assay type: cell-based; details: Acinetobacter calcoaceticus, IID876, Acinetobacter anitratus IID 876; 10^6 cells/ml; standard strain; read-out: MIC
S. pneumoniae 2054 = experiment: In vitro antibacterial activity, MIC (clinical isolates); assay type: cell-based; details: Streptococcus pneumoniae; S. pneumoniae 2054; 10^6 cells/ml; clinical isolate; read-out: MIC
C. ramosum = experiment: In vitro antibacterial activity, MIC (standard strain); assay type: cell-based; details: Thomasclavelia ramosa; C. ramosum; 10^6 cells/ml; standard strain; read-out: MIC
[6] = tested on: Serratia marcescens IID 618; experiment: as above; assay type: cell-based; details: Serratia marcescens, IID618, Serratia marcescens IID 618; 10^6 cells/ml; standard strain; read-out: MIC
S. pyogenes 3102 = experiment: In vitro antibacterial activity, MIC (clinical isolates); assay type: cell-based; details: Streptococcus pyogenes; S. pyogenes 3102; 10^6 cells/ml; clinical isolate; read-out: MIC
S. agalactiae 4049 = experiment: as above; assay type: cell-based; details: Streptococcus agalactiae; S. agalactiae 4049; 10^6 cells/ml; clinical isolate; read-out: MIC
[7] = tested on: Proteus vulgaris IFO 3167; experiment: In vitro antibacterial activity, MIC (standard strain); assay type: cell-based; details: IFO3167; Proteus vulgaris IFO 3167; 10^6 cells/ml; standard strain; read-out: MIC
[8] = tested on: Salmonella entritidis IID 604; experiment: as above; assay type: cell-based; details: IID604; Salmonella entritidis IID 604; 10^6 cells/ml; standard strain; read-out: MIC
[9] = tested on: Bacteroides fragilis GM 7000; experiment: as above; assay type: cell-based; details: GM7000; Bacteroides fragilis GM 7000; 10^6 cells/ml; standard strain; read-out: MIC
S. faecalis 401 = experiment: In vitro antibacterial activity, MIC (clinical isolates); assay type: cell-based; details: Enterococcus faecalis; S. faecalis 401; 10^6 cells/ml; clinical isolate; read-out: MIC
P. aeruginosa IID 1210 = experiment: In vitro antibacterial activity, MIC (standard strain); assay type: cell-based; details: Pseudomonas aeruginosa, IID1210; P. aeruginosa IID 1210; 10^6 cells/ml; standard strain; read-out: MIC
S. pyogenes 3107 = experiment: In vitro antibacterial activity, MIC (clinical isolates); assay type: cell-based; details: Streptococcus pyogenes; S. pyogenes 3107; 10^6 cells/ml; clinical isolate; read-out: MIC
[10] = tested on: Clostridium perfringens KYA 13123; experiment: microbe, parasite or virus in culture; assay type: cell-based; details: KYA13123
S. pneumoniae IID 552 = experiment: In vitro antibacterial activity, MIC (standard strain); assay type: cell-based; details: Streptococcus pneumoniae, IID552; S. pneumoniae IID 552; 10^6 cells/ml; standard strain; read-out: MIC
S. agalactiae 4470 = experiment: In vitro antibacterial activity, MIC (clinical isolates); assay type: cell-based; details: Streptococcus agalactiae; S. agalactiae 4470; 10^6 cells/ml; clinical isolate; read-out: MIC
[11] = tested on: Bacillus subtilis PCI 219; experiment: In vitro antibacterial activity, MIC (standard strain); assay type: cell-based; details: PCI219; Bacillus subtilis PCI 219; 10^6 cells/ml; standard strain; read-out: MIC
[12] = tested on: Pseudomonas aeruginosa V-1; experiment: as above; assay type: cell-based; details: V1; Pseudomonas aeruginosa V-1; 10^6 cells/ml; standard strain; read-out: MIC
S. faecalis 214 = experiment: In vitro antibacterial activity, MIC (clinical isolates); assay type: cell-based; details: Enterococcus faecalis; S. faecalis 214; 10^6 cells/ml; clinical isolate; read-out: MIC
S. pneumoniae 15 = experiment: as above; assay type: cell-based; details: Streptococcus pneumoniae; S. pneumoniae 15; 10^6 cells/ml; clinical isolate; read-out: MIC

With `CCCNCC1CCN(c2c(F)cc3c(=O)c(C(=O)O)cn(C4CC4)c3c2F)C1` (stereo not drawn) [Example 10, 1-Cyclopropyl-6,8-difluoro-1,4-dihydro-4-oxo-7-(3-n-propylaminomethyl-l-pyrrolidinyl)-3-quinolinecarboxylic acid hydrochloride] the MIC (B. fragilis 25285) was 0.78 µg/mL, the MIC [1] was 0.025 µg/mL and the MIC (S. agalactiae 4368) was 0.39 µg/mL. It also gave an MIC (S. pneumoniae 2950) of 0.39 µg/mL, an MIC (S. epidermidis IID 866) of 0.1 µg/mL and an MIC [2] of 0.05 µg/mL. For the same compound, the MIC (P. mirabilis IID 994) was 0.025 µg/mL, the MIC [3] was 0.2 µg/mL and the MIC (E. coli ATCC 10536) was 0.1 µg/mL. For the same compound, the MIC [4] was 0.05 µg/mL, the MIC (S. pyogenes 4372) was 0.39 µg/mL and the MIC (S. agalactiae 4394) was 0.78 µg/mL. It also gave an MIC [5] of 0.05 µg/mL, an MIC (S. pneumoniae 2054) of 0.78 µg/mL and an MIC (C. ramosum) of 1.56 µg/mL. The MIC [6] was 0.2 µg/mL, the MIC (S. pyogenes 3102) was 0.2 µg/mL and the MIC (S. agalactiae 4049) was 0.78 µg/mL. It also gave an MIC [7] of 0.025 µg/mL, an MIC [8] of 0.1 µg/mL and an MIC [9] of 1.56 µg/mL. It also gave an MIC (S. faecalis 401) of 0.78 µg/mL, an MIC (P. aeruginosa IID 1210) of 3.13 µg/mL and an MIC (S. pyogenes 3107) of 0.2 µg/mL. For the same compound, the MIC [10] was 0.39 µg/mL, the MIC (S. pneumoniae IID 552) was 0.39 µg/mL and the MIC (S. agalactiae 4470) was 0.39 µg/mL. For the same compound, the MIC [11] was 0.0125 µg/mL, the MIC [12] was 1.56 µg/mL and the MIC (S. faecalis 214) was 0.39 µg/mL. It also gave an MIC (S. pneumoniae 15) of 0.39 µg/mL.

`CC(C)NCC1CCN(c2c(F)cc3c(=O)c(C(=O)O)cn(C4CC4)c3c2F)C1.Cl` (centres unmarked) [Example 11, 1-Cyclopropyl-6,8-difluoro-1,4-dihydro-7-(3-isopropylaminomethyl-1-pyrrolidinyl)-4-oxo-3-quinolinecarboxylic acid hydrochloride] gave an MIC (B. fragilis 25285) of 0.78 µg/mL, an MIC [1] of 0.39 µg/mL and an MIC (S. agalactiae 4368) of 0.2 µg/mL. For the same compound, the MIC (S. pneumoniae 2950) was 0.2 µg/mL, the MIC (S. epidermidis IID 866) was 0.05 µg/mL and the MIC [2] was 0.05 µg/mL. For the same compound, the MIC (P. mirabilis IID 994) was 0.1 µg/mL, the MIC [3] was 0.39 µg/mL and the MIC (E. coli ATCC 10536) was 0.05 µg/mL. For the same compound, the MIC [4] was 0.05 µg/mL, the MIC (S. pyogenes 4372) was 0.2 µg/mL and the MIC (S. agalactiae 4394) was 0.39 µg/mL. The MIC [5] was 0.1 µg/mL, the MIC (S. pneumoniae 2054) was 0.2 µg/mL and the MIC (C. ramosum) was 0.78 µg/mL. The MIC [6] was 0.39 µg/mL, the MIC (S. pyogenes 3102) was 0.2 µg/mL and the MIC (S. agalactiae 4049) was 0.39 µg/mL. The MIC [7] was 0.05 µg/mL, the MIC [8] was 0.2 µg/mL and the MIC [9] was 1.56 µg/mL. The MIC (S. faecalis 401) was 0.39 µg/mL, the MIC (P. aeruginosa IID 1210) was 3.13 µg/mL and the MIC (S. pyogenes 3107) was 0.2 µg/mL. It also gave an MIC [10] of 0.2 µg/mL, an MIC (S. pneumoniae IID 552) of 0.39 µg/mL and an MIC (S. agalactiae 4470) of 0.2 µg/mL. It also gave an MIC [11] of 0.025 µg/mL, an MIC [12] of 1.56 µg/mL and an MIC (S. faecalis 214) of 0.39 µg/mL. It also gave an MIC (S. pneumoniae 15) of 0.2 µg/mL.
